Where two headings read alike, the source gives them in different places.
Experiments:
SMN2 mRNA = experiment: RT-qPCR splicing assay, SMN2 mRNA; assay type: cell-based, human; details: Homo sapiens, canonical junction qPCR panel, Table 4; read-out: SMN2 IC50 (decrease in CJ mRNA levels)
Outline: (§1)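 Both isoforms, CJ and AJ, read by qPCR from crude lysates of treated A673 or K562 cells; 24 h, 37 °C, maximum 10 uM. Normalization: housekeeper ΔCt, then DMSO ΔΔCt.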

MYB mRNA = experiment: RT-qPCR splicing assay, MYB mRNA canonical (CJ) and alternative (AJ) junction; assay type: cell-based, human; details: Homo sapiens; for AC50: MYB alternative junction mRNA, read-out: MYB AJ (increase in AJ mRNA, AC50)
Outline: as §1

K562 cells = experiment: Cell Titer Glo 2.0 cell viability (toxicity) assay, K562; details: 500 cells/well, 72 hours
[1] = MYB canonical junction mRNA, RT-qPCR, read-out: MYB CJ (decrease in CJ mRNA levels, IC50)
[2] = canonical junction qPCR panel, Table 4, read-out: MYB IC50 (decrease in CJ mRNA levels)

Compound	IC50 (SMN2 mRNA)	IC50 (MYB mRNA; [1])	IC50 (MYB mRNA; [2])	AC50 (MYB mRNA; RT-qPCR)	Effect of Exemplary Compounds on Cell Viability, K562 (K562 cells)
Cn1cc2cc(-c3ncc4nc(C5CCNCC5)ccc4n3)c(O)c(F)c2n1 [Compound 155]	< 100 nM	< 100 nM	< 100 nM	< 100 nM	A (A represents <100 nM)
Cc1nc2cc(O)c(-c3ccc4nc(N5CCNC(C(C)(C)C)C5)ccc4n3)cc2o1 (stereo not drawn) [Compound 492]	< 100 nM	1000 to 10000 nM	1000 to 10000 nM	100 to 1000 nM	C (C represents 1000-9999 nM)
Cc1nc2cc(O)c(-c3ccc4nc(N5CC[C@@H](N(C)C(C)(C)C)C5)ccc4n3)cc2o1 [Compound 493]	< 100 nM	< 100 nM	< 100 nM	< 100 nM	A (A represents <100 nM)
Cc1c(O)c(-c2nc(C(=O)N(C)C)c3cc(N4CCNCC4)ccc3n2)cc2cn(C)nc12 [Compound 502, 2-(6-hydroxy-2,7-dimethylindazol-5-yl)-N,N-dimethyl-6-(piperazin-1-yl)quinazoline-4-carboxamide]	100 to 1000 nM	1000 to 10000 nM	1000 to 10000 nM	1000 to 10000 nM	C (C represents 1000-9999 nM)
CCNC(=O)c1nc(-c2cc3cn(C)nc3c(C)c2O)nc2ccc(N3CCNCC3)cc12 [Compound 503, N-ethyl-2-(6-hydroxy-2,7-dimethylindazol-5-yl)-6-(piperazin-1-yl)quinazoline-4-carboxamide]	< 100 nM	< 100 nM	< 100 nM	< 100 nM	A (A represents <100 nM)
CNC(=O)c1nc(-c2cc(F)c3nc(C)cn3c2)nc2ccc(N3CCNCC3)cc12 [Compound 505, 2-{8-fluoro-2-methylimidazo[1,2-a]pyridin-6-yl}-N-methyl-6-(piperazin-1-yl) quinazoline-4-carboxamide]	< 100 nM	< 100 nM	< 100 nM	< 100 nM	B (B represents 100-1000 nM)
CNC(=O)c1nc(-c2cc3cn(C)nc3c(C)c2O)nc2ccc(N3CCC(N(C)C)CC3)cc12 [Compound 507, 6-[4-(dimethylamino)piperidin-1-yl]-2-(6-hydroxy-2,7-dimethylindazol-5-yl)-N-methylquinazoline-4-carboxamide]	< 100 nM	< 100 nM	< 100 nM	< 100 nM	A (A represents <100 nM)
CNC(=O)c1nc(-c2cc3cn(C)nc3c(C)c2O)nc2ccc(N3CCC(NC)C3)cc12 (stereo not drawn) [Compound 510, 2-(6-hydroxy-2,7-dimethylindazol-5-yl)-N-methyl-6-[3-(methylamino)pyrrolidin-1-yl]quinazoline-4-carboxamide]	< 100 nM	< 100 nM	< 100 nM	< 100 nM	A (A represents <100 nM)
CNC(=O)c1nc(-c2cc3cn(C)nc3c(C)c2O)nc2ccc(N3C[C@@H](C)N[C@@H](C)C3)cc12 [Compound 511, 6-[(3R,5S)-3,5-dimethylpiperazin-1-yl]-2-(6-hydroxy-2,7-dimethylindazol-5-yl)-N-methylquinazoline-4-carboxamide]	< 100 nM	< 100 nM	< 100 nM	< 100 nM	A (A represents <100 nM)
CC(=O)c1nc(-c2cc3cn(C)nc3c(F)c2O)nc2ccc(N3CCNCC3)cc12 [Compound 513, 1-(2-(7-fluoro-6-hydroxy-2-methyl-2H-indazol-5-yl)-6-(piperazin-1-yl)quinazolin-4-yl)ethan-1-one 2,2,2-trifluoroacetate]	< 100 nM	< 100 nM	< 100 nM	< 100 nM	A (A represents <100 nM)
Cn1cc2cc(-c3nc(C#N)c4cc(N5CCNCC5)ccc4n3)c(O)c(F)c2n1 [Compound 514, 2-(7-fluoro-6-hydroxy-2-methylindazol-5-yl)-6-(piperazin-1-yl) quinazoline-4-carbonitrile; trifluoroacetic acid]	< 100 nM	< 100 nM	< 100 nM	< 100 nM	A (A represents <100 nM)
Cc1c(O)c(-c2ccc3cc(N4CCNCC4)cc(F)c3n2)cc2cn(C)nc12 [Compound 515, 5-[8-fluoro-6-(piperazin-1-yl)quinolin-2-yl]-2,7-dimethylindazol-6-ol]	< 100 nM	< 100 nM	< 100 nM	< 100 nM	A (A represents <100 nM)
Cn1cc2cc(-c3ccc4cc(N5CCNCC5)cc(F)c4n3)cc(F)c2n1 [Compound 516, 8-fluoro-2-(7-fluoro-2-methylindazol-5-yl)-6-(piperazin-1-yl)quinoline]	< 100 nM	< 100 nM	< 100 nM	100 to 1000 nM	B (B represents 100-1000 nM)
Cc1cn2cc(-c3ccc4cc(N5CCNCC5)cc(F)c4n3)cc(F)c2n1 [Compound 517, 8-fluoro-2-{8-fluoro-2-methylimidazo[1,2-a]pyridin-6-yl}-6-(piperazin-1-yl)quinoline]	< 100 nM	< 100 nM	< 100 nM	< 100 nM	A (A represents <100 nM)
Cn1cc2cc(-c3nc(C4CC4)c4cc(N5CCNCC5)ccc4n3)c(O)c(F)c2n1 [Compound 518, 5-[4-cyclopropyl-6-(piperazin-1-yl)quinazolin-2-yl]-7-fluoro-2-methylindazol-6-ol; trifluoroacetic acid]	< 100 nM	< 100 nM	< 100 nM	100 to 1000 nM	B (B represents 100-1000 nM)

The next lines start with results.

IC50 (SMN2 mRNA)	IC50 (MYB mRNA; [1])	IC50 (MYB mRNA; [2])	Compound	AC50 (MYB mRNA; RT-qPCR)	Effect of Exemplary Compounds on Cell Viability, K562 (K562 cells)
< 100 nM	100 to 1000 nM	100 to 1000 nM	Cc1c(O)c(-c2ncc3cc(N4C[C@@H](C)N[C@H](C)C4)ccc3n2)cc2cn(C)nc12 (single isomer, unassigned) [Compound 661]	100 to 1000 nM	B (B represents 100-1000 nM)
< 100 nM	< 100 nM	< 100 nM	CNC(=O)c1nc(-c2cc3cn(C)nc3c(F)c2O)nc2ccc(N3C[C@@H](C)N[C@H](C)C3)cc12 (single isomer, unassigned) [Compound 668]	< 100 nM	A (A represents <100 nM)
< 100 nM	< 100 nM	< 100 nM	CNC(=O)c1nc(-c2cc3cn(C)nc3c(F)c2O)nc2ccc(N3C[C@H](C)N[C@@H](C)C3)cc12 (single isomer, unassigned) [Compound 669]	< 100 nM	A (A represents <100 nM)
< 100 nM	< 100 nM	< 100 nM	CNC(=O)c1nc(-c2cc3cn(C)nc3cc2O)nc2ccc(N3C[C@H](C)N[C@@H](C)C3)cc12 (single isomer, unassigned) [Compound 676]	< 100 nM	A (A represents <100 nM)
< 100 nM	< 100 nM	< 100 nM	CNC(=O)c1nc(-c2cc3cn(C)nc3cc2O)nc2ccc(N3C[C@@H](C)N[C@H](C)C3)cc12 (single isomer, unassigned) [Compound 677]	< 100 nM	B (B represents 100-1000 nM)
< 100 nM	100 to 1000 nM	100 to 1000 nM	Cc1c(O)c(-c2nc(-c3cncs3)c3cc(N4CCNCC4)ccc3n2)cc2cn(C)nc12 [Compound 519, 2,7-dimethyl-5-[6-(piperazin-1-yl)-4-(1,3-thiazol-5-yl)quinazolin-2-yl]indazol-6-ol]	100 to 1000 nM	B (B represents 100-1000 nM)
< 100 nM	100 to 1000 nM	100 to 1000 nM	Cc1c(O)c(-c2ncc3cc(N4CCNCC4)ccc3n2)cc2cn(C)nc12 [Compound 520, 2,7-dimethyl-5-[6-(piperazin-1-yl)quinazolin-2-yl]indazol-6-ol]	< 100 nM	B (B represents 100-1000 nM)
< 100 nM	1000 to 10000 nM	1000 to 10000 nM	Cc1c(O)c(-c2nc(-c3nnc[nH]3)c3cc(N4CCNCC4)ccc3n2)cc2cn(C)nc12 [Compound 522, 2,7-dimethyl-5-[6-(piperazin-1-yl)-4-(4H-1,2,4-triazol-3-yl)quinazolin-2-yl]indazol-6-ol; bis(trifluoroacetic acid)]	1000 to 10000 nM	C (C represents 1000-9999 nM)
< 100 nM	< 100 nM	< 100 nM	Cc1c(O)c(-c2nc(C(N)=O)c3cc(N4CCNCC4)ccc3n2)cc2cn(C)nc12 [Compound 523, 2-(6-hydroxy-2,7-dimethylindazol-5-yl)-6-(piperazin-1-yl) quinazoline-4-carboxamide]	< 100 nM	A (A represents <100 nM)

Reference: US20250092065A1, “2-(INDAZOL-5-YL)-6-(PIPERIDIN-4-YL)-1,7-NAPHTHYRIDINE DERIVATIVES AND RELATED COMPOUNDS AS MODULATORS FOR SPLICING NUCLEIC ACIDS AND FOR THE TREATMENT OF PROLIFERATIVE DISEASES” (REMIX THERAPEUTICS INC., priority 2022, published 2025)
